Measured values from paper doi:10.1101/2025.06.19.660642, “Discovery of orally bioavailable Zika and West Nile Virus antiviral compounds targeting the NS2B-NS3 protease” (bioRxiv, 2025).

The compounds below were run against T1, ZIKV NS2B-NS3 protease (Zika virus, UniProt A0A024B7W1) (assay: ZIKV NS2B-NS3 protease biochemical FRET assay). Conditions: Ligand efficiency = pKi / heavy atom count.
T1 construct: directed at the co-expressed ZIKV NS2B-NS3 protease
T1 sequence (A0A024B7W1 1503-1680): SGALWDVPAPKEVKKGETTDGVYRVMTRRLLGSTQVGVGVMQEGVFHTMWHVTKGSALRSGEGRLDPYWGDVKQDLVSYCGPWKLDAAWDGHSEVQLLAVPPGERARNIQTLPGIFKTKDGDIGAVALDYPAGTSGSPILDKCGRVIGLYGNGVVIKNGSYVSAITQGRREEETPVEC
T1 sequence (A0A024B7W1 1425-1464): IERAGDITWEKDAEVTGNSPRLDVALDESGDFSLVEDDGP
In the case of `NCc1cccc(NC(=O)c2cc(Cl)cc(NC(=O)OCc3ccccc3)c2)c1` [ASAP-0016806], the “Ligand efficiency (LE)” value is reported as 0.259.

Same assay, conditions: ZIKV NS2B-NS3 Ki
With `NCc1cccc(NC(=O)c2cc(Cl)cc(NC(=O)OCc3ccccc3)c2)c1` [ASAP-0016806] the Ki was 4.3 µM.

Same assay, conditions: ZIKV NS2B-NS3 Ki (uM), library 1, supplement
`NCc1ccc(NC(=O)c2cc(Cl)cc(NC(=O)OCc3ccccc3)c2)cc1` [ASAP-0017575, NCc1ccc(NC(=O)c2cc(Cl)cc(NC(=O)OCc3ccccc3)c2)cc1] gave a Ki of 9.23 µM. With `NCc1nccc(NC(=O)c2cc(Cl)cc(NC(=O)OCc3ccccc3)c2)n1` [ASAP-0017603, NCc1nccc(NC(=O)c2cc(Cl)cc(NC(=O)OCc3ccccc3)c2)n1] the Ki was > 89.3 µM. With `NC[C@H]1CC[C@H](NC(=O)c2cc(Cl)cc(NC(=O)OCc3ccccc3)c2)CC1` [ASAP-0017626, NC[C@H]1CC[C@H](NC(=O)c2cc(Cl)cc(NC(=O)OCc3ccccc3)c2)CC1] the Ki was > 89.3 µM. With `O=C(Nc1cc(Cl)cc(C(=O)Nc2cccc(CC3CCNCC3)c2)c1)OCc1ccccc1` [ASAP-0017638, O=C(Nc1cc(Cl)cc(C(=O)Nc2cccc(CC3CCNCC3)c2)c1)OCc1ccccc1] the Ki was > 89.3 µM. Compound `NCCc1cccc(NC(=O)c2cc(Cl)cc(NC(=O)OCc3ccccc3)c2)c1` [ASAP-0017670, NCCc1cccc(NC(=O)c2cc(Cl)cc(NC(=O)OCc3ccccc3)c2)c1] has a Ki of 3.51 µM. `NC1(c2cccc(NC(=O)c3cc(Cl)cc(NC(=O)OCc4ccccc4)c3)c2)CCC1` [ASAP-0017671, NC1(c2cccc(NC(=O)c3cc(Cl)cc(NC(=O)OCc4ccccc4)c3)c2)CCC1] was tested, and the Ki was > 89.3 µM. With `CN(C(=O)c1cc(Cl)cc(NC(=O)OCc2ccccc2)c1)c1ccc(CN)cc1` [ASAP-0017677, CN(C(=O)c1cc(Cl)cc(NC(=O)OCc2ccccc2)c1)c1ccc(CN)cc1] the Ki was > 89.3 µM. `NCC1CCN(C(=O)c2cc(Cl)cc(NC(=O)OCc3ccccc3)c2)CC1` [ASAP-0017689, NCC1CCN(C(=O)c2cc(Cl)cc(NC(=O)OCc3ccccc3)c2)CC1] showed a Ki of 87.4 µM. `NCCc1ccc(NC(=O)c2cc(Cl)cc(NC(=O)OCc3ccccc3)c2)cc1` [ASAP-0017692, NCCc1ccc(NC(=O)c2cc(Cl)cc(NC(=O)OCc3ccccc3)c2)cc1] showed a Ki of 9.64 µM. `NC1CCN(C(=O)c2cc(Cl)cc(NC(=O)OCc3ccccc3)c2)CC1` [ASAP-0017695, NC1CCN(C(=O)c2cc(Cl)cc(NC(=O)OCc3ccccc3)c2)CC1] was tested, and the Ki was > 89.3 µM. Work on `O=C(Nc1cc(Cl)cc(C(=O)Nc2cccc(C3CCNCC3)c2)c1)OCc1ccccc1` [ASAP-0017708, O=C(Nc1cc(Cl)cc(C(=O)Nc2cccc(C3CCNCC3)c2)c1)OCc1ccccc1] yielded a Ki of 11.2 µM. With `NCCNC(=O)c1cc(Cl)cc(NC(=O)OCc2ccccc2)c1` [ASAP-0017736, NCCNC(=O)c1cc(Cl)cc(NC(=O)OCc2ccccc2)c1] the Ki was > 89.3 µM. For `NC[C@H]1CC[C@H](CNC(=O)c2cc(Cl)cc(NC(=O)OCc3ccccc3)c2)CC1` [ASAP-0017744, NC[C@H]1CC[C@H](CNC(=O)c2cc(Cl)cc(NC(=O)OCc3ccccc3)c2)CC1], the Ki was 23.1 µM. In the case of `CC(C)N1CCc2nc(NC(=O)c3cc(Cl)cc(NC(=O)OCc4ccccc4)c3)sc2C1` [ASAP-0020812, CC(C)N1CCc2nc(NC(=O)c3cc(Cl)cc(NC(=O)OCc4ccccc4)c3)sc2C1], the Ki is reported as > 89.3 µM. `CN(C)Cc1cc(NC(=O)c2cc(Cl)cc(NC(=O)OCc3ccccc3)c2)sn1` [ASAP-0020825, CN(C)Cc1cc(NC(=O)c2cc(Cl)cc(NC(=O)OCc3ccccc3)c2)sn1] was tested, and the Ki was > 89.3 µM. `Cn1nc2c(c1NC(=O)c1cc(Cl)cc(NC(=O)OCc3ccccc3)c1)CNC2` [ASAP-0020883, Cn1nc2c(c1NC(=O)c1cc(Cl)cc(NC(=O)OCc3ccccc3)c1)CNC2] was tested, and the Ki was > 89.3 µM. With `CN1CCn2nc(NC(=O)c3cc(Cl)cc(NC(=O)OCc4ccccc4)c3)cc2C1` [ASAP-0020900, CN1CCn2nc(NC(=O)c3cc(Cl)cc(NC(=O)OCc4ccccc4)c3)cc2C1] the Ki was > 89.3 µM. `CN1CCc2nc(NC(=O)c3cc(Cl)cc(NC(=O)OCc4ccccc4)c3)sc2C1` [ASAP-0020935, CN1CCc2nc(NC(=O)c3cc(Cl)cc(NC(=O)OCc4ccccc4)c3)sc2C1] was tested, and the Ki was > 89.3 µM. In the case of `O=C(Nc1cc(Cl)cc(C(=O)Nc2ncc3n2CCNC3)c1)OCc1ccccc1` [ASAP-0020975, O=C(Nc1cc(Cl)cc(C(=O)Nc2ncc3n2CCNC3)c1)OCc1ccccc1], the Ki is reported as > 89.3 µM. With `O=C(Nc1cc(Cl)cc(C(=O)Nc2cc3n(n2)CCNC3)c1)OCc1ccccc1` [ASAP-0020976, O=C(Nc1cc(Cl)cc(C(=O)Nc2cc3n(n2)CCNC3)c1)OCc1ccccc1] the Ki was > 89.3 µM. For `O=C(Nc1cc(Cl)cc(C(=O)Nc2cnc3n2CCNC3)c1)OCc1ccccc1` [ASAP-0021001, O=C(Nc1cc(Cl)cc(C(=O)Nc2cnc3n2CCNC3)c1)OCc1ccccc1], the Ki was > 89.3 µM. Compound `O=C(Nc1cc(Cl)cc(C(=O)Nc2nc3c(s2)CNC3)c1)OCc1ccccc1` [ASAP-0021026, O=C(Nc1cc(Cl)cc(C(=O)Nc2nc3c(s2)CNC3)c1)OCc1ccccc1] has a Ki of 76.9 µM. `O=C(Nc1cc(Cl)cc(C(=O)Nc2n[nH]c3c2CNC32CC2)c1)OCc1ccccc1` [ASAP-0021028, O=C(Nc1cc(Cl)cc(C(=O)Nc2n[nH]c3c2CNC32CC2)c1)OCc1ccccc1] was tested, and the Ki was > 89.3 µM. Work on `O=C(Nc1cc(Cl)cc(C(=O)Nc2nc3c(s2)CCNC3)c1)OCc1ccccc1` [ASAP-0021029, O=C(Nc1cc(Cl)cc(C(=O)Nc2nc3c(s2)CCNC3)c1)OCc1ccccc1] yielded a Ki of 48 µM. For `Cn1nc(NC(=O)c2cc(Cl)cc(NC(=O)OCc3ccccc3)c2)c2c1CNC2` [ASAP-0021036, Cn1nc(NC(=O)c2cc(Cl)cc(NC(=O)OCc3ccccc3)c2)c2c1CNC2], the Ki was > 89.3 µM. Compound `O=C(Nc1cc(Cl)cc(C(=O)Nc2n[nH]c3c2CNC3)c1)OCc1ccccc1` [ASAP-0021061, O=C(Nc1cc(Cl)cc(C(=O)Nc2n[nH]c3c2CNC3)c1)OCc1ccccc1] has a Ki of 36.1 µM. For `NCc1cn(CCNC(=O)c2cc(Cl)cc(NC(=O)OCc3ccccc3)c2)nn1` [ASAP-0021085, NCc1cn(CCNC(=O)c2cc(Cl)cc(NC(=O)OCc3ccccc3)c2)nn1], the Ki was > 89.3 µM. With `C[C@H](N)c1cccc(NC(=O)c2cc(Cl)cc(NC(=O)OCc3ccccc3)c2)c1` [ASAP-0021091, C[C@H](N)c1cccc(NC(=O)c2cc(Cl)cc(NC(=O)OCc3ccccc3)c2)c1] the Ki was 12.3 µM. `O=C(Nc1cc(Cl)cc(C(=O)NCC2(CO)CCNCC2)c1)OCc1ccccc1` [ASAP-0021096, O=C(Nc1cc(Cl)cc(C(=O)NCC2(CO)CCNCC2)c1)OCc1ccccc1] was tested, and the Ki was > 89.3 µM. For `NCc1nc(CNC(=O)c2cc(Cl)cc(NC(=O)OCc3ccccc3)c2)cs1` [ASAP-0021116, NCc1nc(CNC(=O)c2cc(Cl)cc(NC(=O)OCc3ccccc3)c2)cs1], the Ki was > 89.3 µM. With `Cc1c(CN)cccc1NC(=O)c1cc(Cl)cc(NC(=O)OCc2ccccc2)c1` [ASAP-0021118, Cc1c(CN)cccc1NC(=O)c1cc(Cl)cc(NC(=O)OCc2ccccc2)c1] the Ki was 40.1 µM. In the case of `Cc1ccc(NC(=O)c2cc(Cl)cc(NC(=O)OCc3ccccc3)c2)cc1CN` [ASAP-0021119, Cc1ccc(NC(=O)c2cc(Cl)cc(NC(=O)OCc3ccccc3)c2)cc1CN], the Ki is reported as 9.81 µM. In the case of `NC12CCC(CNC(=O)c3cc(Cl)cc(NC(=O)OCc4ccccc4)c3)(CC1)OC2` [ASAP-0021132, NC12CCC(CNC(=O)c3cc(Cl)cc(NC(=O)OCc4ccccc4)c3)(CC1)OC2], the Ki is reported as 29.7 µM. `NCc1ccc(O)c(NC(=O)c2cc(Cl)cc(NC(=O)OCc3ccccc3)c2)c1` [ASAP-0021142, NCc1ccc(O)c(NC(=O)c2cc(Cl)cc(NC(=O)OCc3ccccc3)c2)c1] showed a Ki of 16.3 µM. In the case of `NCCc1nsc(NC(=O)c2cc(Cl)cc(NC(=O)OCc3ccccc3)c2)n1` [ASAP-0021153, NCCc1nsc(NC(=O)c2cc(Cl)cc(NC(=O)OCc3ccccc3)c2)n1], the Ki is reported as > 89.3 µM. Work on `Cn1nc(CCN)nc1NC(=O)c1cc(Cl)cc(NC(=O)OCc2ccccc2)c1` [ASAP-0021177, Cn1nc(CCN)nc1NC(=O)c1cc(Cl)cc(NC(=O)OCc2ccccc2)c1] yielded a Ki of 28.1 µM. `O=C(Nc1cc(Cl)cc(C(=O)Nc2cccc3c2CNC3)c1)OCc1ccccc1` [ASAP-0021189, O=C(Nc1cc(Cl)cc(C(=O)Nc2cccc3c2CNC3)c1)OCc1ccccc1] showed a Ki of 67.8 µM. `Cc1cc(CN)cc(NC(=O)c2cc(Cl)cc(NC(=O)OCc3ccccc3)c2)c1` [ASAP-0021201, Cc1cc(CN)cc(NC(=O)c2cc(Cl)cc(NC(=O)OCc3ccccc3)c2)c1] showed a Ki of 4.63 µM. `NCCCc1ccnc(NC(=O)c2cc(Cl)cc(NC(=O)OCc3ccccc3)c2)c1` [ASAP-0021210, NCCCc1ccnc(NC(=O)c2cc(Cl)cc(NC(=O)OCc3ccccc3)c2)c1] was tested, and the Ki was 16.5 µM. For `CN(C)Cc1csc(NC(=O)c2cc(Cl)cc(NC(=O)OCc3ccccc3)c2)n1` [ASAP-0021243, CN(C)Cc1csc(NC(=O)c2cc(Cl)cc(NC(=O)OCc3ccccc3)c2)n1], the Ki was > 89.3 µM. With `O=C(Nc1cc(Cl)cc(C(=O)NCc2n[nH]c3c2CNCC3)c1)OCc1ccccc1` [ASAP-0021271, O=C(Nc1cc(Cl)cc(C(=O)NCc2n[nH]c3c2CNCC3)c1)OCc1ccccc1] the Ki was > 89.3 µM. For `Cn1nc2c(c1NC(=O)c1cc(Cl)cc(NC(=O)OCc3ccccc3)c1)CNCC2` [ASAP-0021291, Cn1nc2c(c1NC(=O)c1cc(Cl)cc(NC(=O)OCc3ccccc3)c1)CNCC2], the Ki was 19.7 µM. `NCCCc1ccc(F)c(NC(=O)c2cc(Cl)cc(NC(=O)OCc3ccccc3)c2)c1` [ASAP-0021296, NCCCc1ccc(F)c(NC(=O)c2cc(Cl)cc(NC(=O)OCc3ccccc3)c2)c1] gave a Ki of 5.63 µM. `Cn1nc2c(c1NC(=O)c1cc(Cl)cc(NC(=O)OCc3ccccc3)c1)CCNC2` [ASAP-0021390, Cn1nc2c(c1NC(=O)c1cc(Cl)cc(NC(=O)OCc3ccccc3)c1)CCNC2] was tested, and the Ki was > 89.3 µM.

Same assay, conditions: ZIKV NS2B-NS3 pKi, library 1, supplement
`NCCCc1cccc(NC(=O)c2cc(Cl)cc(NC(=O)OCc3ccccc3)c2)n1` [ASAP-0021169, NCCCc1cccc(NC(=O)c2cc(Cl)cc(NC(=O)OCc3ccccc3)c2)n1] was tested, and the Ki was 17 µM.

Same assay, conditions: library 1, supplement
With `C[C@@H](N)c1ccc(NC(=O)c2cc(Cl)cc(NC(=O)OCc3ccccc3)c2)cc1` [ASAP-0017733, C[C@@H](N)c1ccc(NC(=O)c2cc(Cl)cc(NC(=O)OCc3ccccc3)c2)cc1 ¦&1:1¦] the “ZIKV NS2B-NS3 pKi” value was 4.88. In the case of `O=C(Nc1cc(Cl)cc(C(=O)NC[C@@H]2CCNC3(CC3)C2)c1)OCc1ccccc1` [ASAP-0021400, O=C(Nc1cc(Cl)cc(C(=O)NC[C@@H]2CCNC3(CC3)C2)c1)OCc1ccccc1 ¦&1:13¦], the “ZIKV NS2B-NS3 pKi” value is reported as < 4.05.

Same assay, conditions: library 1, supplement; read-out: ZIKV NS2B-NS3 Ki
`C[C@@H](N)c1ccc(NC(=O)c2cc(Cl)cc(NC(=O)OCc3ccccc3)c2)cc1` [ASAP-0017733, C[C@@H](N)c1ccc(NC(=O)c2cc(Cl)cc(NC(=O)OCc3ccccc3)c2)cc1 ¦&1:1¦] showed a Ki of 13.1 µM. `O=C(Nc1cc(Cl)cc(C(=O)NC[C@@H]2CCNC3(CC3)C2)c1)OCc1ccccc1` [ASAP-0021400, O=C(Nc1cc(Cl)cc(C(=O)NC[C@@H]2CCNC3(CC3)C2)c1)OCc1ccccc1 ¦&1:13¦] was tested, and the Ki was > 89.3 µM.

Same assay, conditions: read-out: inhibition in biochemical assay
Compound `CN(C)Cc1ccc(C(=O)Nc2cc(Cl)cc(C(=O)NC(C)(C)CO)c2)[nH]1` [ASAP-0015373] has an inhibition at 100 µM of 30%.
